{
  "source": "patent EP1161410B1",
  "about": "“RETINOID ANTAGONISTS AND USE THEREOF” (Basilea Pharmaceutica AG, priority 1999, dated 2000)",
  "key": {"IL-12 [1]": {"system": "IL-12", "assay": "IL-12 production by activated monocytes (SAC + IFN-γ), ELISA", "assay_type": "cell-based, human", "details": "SAC+IFN-γ alone 120-126 pg/ml", "experimental": "THP-1 cells were obtained from American Tissue Culture Collection and cultured in complete medium. […] Exp. Med. 183, 147-157 (1996)]. […] Supernatants were collected after 48 hours and freezed at -20 °C until assayed [[…]-Bordignon et al., J. Clin. Invest. 100, 1513-1519 (1997)]. […] Clin. Invest. 93, 1733-1739 (1994)]. […] Absorbance was read at 450-650 nm. The unknown IL-12 concentrations of the samples were read from the corresponding standard curve and multiplied by the corresponding dilution factor. […] Serial dilutions (1 μM-1 pM) were prepared in complete RPMI medium. 10 μl of each dilution was added to 1 ml culture."}, "IL-10": {"system": "IL-10", "assay": "IL-10 production by activated monocytes (SAC + IFN-γ)", "assay_type": "cell-based, human", "details": "SAC+IFN-γ alone 1040 pg/ml"}, "IL-12 [2]": {"system": "IL-12", "assay": "IL-12 production by PBMC primed with IFNγ and stimulated with SAC", "assay_type": "cell-based, human", "details": "IFNγ+SAC alone 360", "experimental": "THP-1 cells were obtained from American Tissue Culture Collection and cultured in complete medium. To assay for IL-12 production, THP-1 cells, 1.25 x 10^6 cells/ml, were stimulated with S. aureus Cowan strain (SAC) (1/1000) and human recombinant interferon-γ (huIFN-γ (1000 U/ml) [Ma et al., J. Exp. Med. 183, 147-157 (1996)]. Alternatively, 0.5 x 10^6 human peripheral blood mononuclear cells (PBMC) (1 ml culture in 48 well plates) were primed with huIFN-γ (1000 U/ml) for 16 hours at 37°C, and then stimulated with SAC (1/1000). Supernatants were collected after 48 hours and freezed at -20 °C until assayed [Panina-Bordignon et al., J. Clin. Invest. 100, 1513-1519 (1997)].\nIL-12 production was measured by specific enzyme linked immuno sorbant assay (ELISA), using 20C2 antibody (rat anti human IL-12 heterodimer p40-p35), at 2.5 µg/ml in coating buffer, and peroxidase-conjugated 4D6 antibody (rat anti human IL-12) at 250 ng/ml in assay buffer as described [Zhang et al., J. Clin. Invest. 93, 1733-1739 (1994)]. Standard (recombinant human IL-12, 800 pg/ml to 6 pg/ml) and samples (100 µl) diluted in assay buffer were added to duplicate wells. Absorbance was read at 450-650 nm. The unknown IL-12 concentrations of the samples were read from the corresponding standard curve and multiplied by the corresponding dilution factor. Maximal IL-12 production varied between 200 and 400 pg/ml.\nLyophilized retinoid antagonists were diluted in DMSO under yellow light, on ice at a concentration of 2 mM. Serial dilutions (1 µM-1 pM) were prepared in complete RPMI medium. 10 µl of each dilution was added to 1 ml culture."}, "human naive T cells": {"system": "human naive T cells", "assay": "Inhibition of differentiation of human naive T cells into T helper 2 (Th2) cells", "assay_type": "cell-based", "set-up": "dose or concentration left out as unconfirmed", "details": "for IL-4 expressing cells, % gated cells: Th2 control 26.32; for IL-4 expressing cells, % Th2 cells: Th2 control = 100", "experimental": "In vitro assay for inhibition of differentiation of human naive T cells into T helper 2 (Th2) cells by retinoid antagonists.\nNaive T cells from cord blood were isolated and treated as described [Panina-Bordignon et al. J. Clin. Invest. 100. 1513-1519 (1997)]. Briefly, cord blood derived mononuclear cells were incubated with anti-CD45RA and anti-CD4 monoclonal antibodies. After a 20 minute incubation, cells were washed and incubated with goat antimouse Ig-coated magnetic beads. Positive cells were separated and seeded at 1 x 10^6 cells/ml in a 24 well plate, together with autologous adherent cells, PHA, and IL-4 in the presence or absence of Compound H or Compound B […] for 5 days. Cells were then washed and put back in culture in the presence of IL-2 (100 U/ml). After 10 days, the cells were collected and restimulated with PMA (50 ng/ml) and ionomycin (1 µg/ml) for 4 hours. Brefeldin A (10 µg/ml) was added for the last 2 hours. Then the cells were fixed with 4% paraformaldehyde and permeabilized with saponin. Fixed cells were stained with FITC-anti IFNγ and PE-anti-IL-4mAbs and subjected to cytofluorimetric analysis."}, "[3]": {"details": "retinoid antagonist (1 µg) added after 16 hours together with SAC"}, "[4]": {"details": "retinoid antagonist (1 µg) added at time 0 together with IFNγ"}},
  "data": [
    {"smiles": "CCCCOc1c(\\C(C)=C/C=C/C(C)=C/C(=O)O)cc(C(C)(C)C)cc1C(C)(C)C", "note": "[Compound B, (2E,4E,6Z)-7-(3,5-di-tert.butyl-2-butyloxyphenyl]-3-methyl-2,4,6-octatrienoic acid]", "values": [
      {"measurement": "IL-12", "setting": "IL-12 [1]; antagonist 10 nM", "value": 106, "unit": "pg/mL"},
      {"measurement": "IL-12", "setting": "IL-12 [1]; antagonist 100 nM", "value": 161, "unit": "pg/mL"},
      {"measurement": "IL-12", "setting": "IL-12 [1]; antagonist 1000 nM", "value": 298, "unit": "pg/mL"},
      {"measurement": "IL-10", "setting": "IL-10; antagonist 10 nM", "value": 1020, "unit": "pg/mL"},
      {"measurement": "IL-10", "setting": "IL-10; antagonist 100 nM", "value": 1521, "unit": "pg/mL"},
      {"measurement": "IL-10", "setting": "IL-10; antagonist 1000 nM", "value": 1700, "unit": "pg/mL"},
      {"measurement": "PBMC IL-12", "setting": "IL-12 [2]; [3]", "value": 367, "unit": "pg/mL"},
      {"measurement": "PBMC IL-12", "setting": "IL-12 [2]; [4]", "value": 568, "unit": "pg/mL"},
      {"measurement": "IL-4 expressing cells, % gated cells", "setting": "human naive T cells", "value": 8.5, "unit": "%"},
      {"measurement": "IL-4 expressing cells, % Th2 cells", "setting": "human naive T cells", "value": 32, "unit": "%"}
    ]},
    {"smiles": "CCCCCCCOc1cc2c(cc1/C(C)=C/c1ccc(C(=O)O)cc1)C(C)(C)CCS2(=O)=O", "note": "[Compound H, p-[(E)-2-[3',4'-Dihydro-4',4'-dimethyl-7'-(beptyloxy)-2'H-1-benzothiopyran-6'-yl]propenyl]benzoic acid 1',1'-dioxide]", "values": [
      {"measurement": "IL-12", "setting": "IL-12 [1]; antagonist 100 nM", "value": 102, "unit": "pg/mL"},
      {"measurement": "IL-12", "setting": "IL-12 [1]; antagonist 1000 nM", "value": 251, "unit": "pg/mL"},
      {"measurement": "IL-10", "setting": "IL-10; antagonist 10 nM", "value": 1060, "unit": "pg/mL"},
      {"measurement": "IL-10", "setting": "IL-10; antagonist 100 nM", "value": 1050, "unit": "pg/mL"},
      {"measurement": "IL-10", "setting": "IL-10; antagonist 1000 nM", "value": 1343, "unit": "pg/mL"},
      {"measurement": "PBMC IL-12", "setting": "IL-12 [2]; [3]", "value": 401, "unit": "pg/mL"},
      {"measurement": "PBMC IL-12", "setting": "IL-12 [2]; [4]", "value": 503, "unit": "pg/mL"},
      {"measurement": "IL-4 expressing cells, % gated cells", "setting": "human naive T cells", "value": 10.8, "unit": "%"},
      {"measurement": "IL-4 expressing cells, % Th2 cells", "setting": "human naive T cells", "value": 41, "unit": "%"}
    ]}
  ]
}
